# Entries after “also recorded” stand apart in the source; their conditions may differ.
# How the values were obtained:
# [1] = target: T1, human recombinant FAP (Homo sapiens, UniProt Q12884); test: Fluorogenic FAP enzyme inhibition assay (BPS Bioscience #80210, Ala-Pro-AMC substrate); format: biochemical; details: for Hill Coefficient: mean with 95% confidence interval in brackets
# T1 construct: purchased BPS Bioscience 80210
# T1 sequence (Q12884 1-760): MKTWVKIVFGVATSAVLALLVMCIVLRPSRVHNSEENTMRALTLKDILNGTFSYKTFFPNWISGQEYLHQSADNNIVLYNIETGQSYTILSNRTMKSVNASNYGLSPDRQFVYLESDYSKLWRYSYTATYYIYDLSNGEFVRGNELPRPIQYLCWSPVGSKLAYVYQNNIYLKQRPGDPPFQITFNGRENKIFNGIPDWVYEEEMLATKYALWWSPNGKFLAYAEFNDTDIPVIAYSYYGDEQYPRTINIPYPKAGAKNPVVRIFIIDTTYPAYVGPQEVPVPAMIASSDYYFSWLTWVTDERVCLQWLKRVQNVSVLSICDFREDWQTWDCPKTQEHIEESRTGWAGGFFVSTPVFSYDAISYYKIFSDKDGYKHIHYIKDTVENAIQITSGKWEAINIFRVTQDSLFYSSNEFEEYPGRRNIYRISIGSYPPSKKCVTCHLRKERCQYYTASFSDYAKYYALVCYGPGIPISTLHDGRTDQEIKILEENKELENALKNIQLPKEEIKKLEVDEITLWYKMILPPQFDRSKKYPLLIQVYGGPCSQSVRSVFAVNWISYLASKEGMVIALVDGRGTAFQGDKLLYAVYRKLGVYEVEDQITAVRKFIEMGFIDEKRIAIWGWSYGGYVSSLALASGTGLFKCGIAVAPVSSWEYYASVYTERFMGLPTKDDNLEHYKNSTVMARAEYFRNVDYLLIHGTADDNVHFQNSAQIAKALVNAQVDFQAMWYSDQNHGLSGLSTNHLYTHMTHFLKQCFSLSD
# Experimental: To determine the inhibitory capacity, a commercial fluorogenic FAP assay was used (BPS Bioscience, San Diego, CA, USA, #80210) according to the manufacturer’s instructions. […] On the day of testing, a 1:10 dilution in the supplied DPP assay buffer was performed for all compounds. […] The fluorogenic peptide substrate (Ala-Pro-AMC dipeptide) was added and the reaction started with the addition of the human recombinant FAP (25 ng/µL). Immediately, the plate was loaded into a multilabel plate reader (Biotek Cytation 5, Agilent, Bellevue, WA, USA) and each well was measured at an excitation wavelength window of 360 ± 20 nm and an emission wavelength window of 450 ± 20 nm. The fluorescence intensity was measured over 15 min in intervals of 15 s, resulting in 61 data points per curve. Controls included blanks (omission of substrate, enzyme and inhibitor), negative (omission of enzyme) and positive controls (omission of inhibitor). The recorded time courses of the type (RFU − RFU0) = f(t) were analyzed with linear regression of the experimental data over the entire measurement period. […] (2) rate=Bottom+(Top−Bottom)×[I]^nH/[I]^nH+IC50^nH
# Spanning a range of compound concentrations (50 pM–1 µM), fluorescence intensity changes were followed over 15 min.
# [2] = Experimental: Microsome experiments with [^18F]12 in the presence of NADPH were performed according to the procedure recently described by us with slight modifications. […] The radiotracer dissolved in EtOH (4 µL; 5 MBq/µL) was diluted with PBS (496 µL, 0.8% EtOH). This radiotracer solution (100 µL, 0.32% EtOH and 16 MBq/mL or 1.6 µM final) was mixed with PBS (112.5 µL) and human liver microsomes (12.5 µL of 20 mg/mL stock; 1 mg/mL final; Gibco™ Cat. No. HMMCPL, Lot. No. PL050E-B) in a 1.5 mL Eppendorf tube and the mixture was warmed for 5 min at 37 °C. Subsequently, NADPH (25 µL of freshly prepared 20 mM solution in PBS, 2 mM final) was added and the mixture was incubated at 37 °C. As a control incubation, NADPH was omitted and replaced by PBS. After distinct time points (10, 20, 30 and 60 min), an aliquot (40 µL) was withdrawn and added to ice-cooled CH3CN (160 µL). The mixture was vortexed for 30 s, stored on ice for 4 min and centrifuged (5 min at 15,000 rpm). The resulting supernatant was used for radio-HPLC analysis using the Shimadzu system described in Section 2.2 with the following conditions. A C18 column Kinetex® from Phenomenex (5 µm, 100 Å, LC Column 250 × 4.6 mm) served as stationary phase. The eluent consisted of (A) 0.1% trifluoroacetic acid in H2O and (B) MeCN; flow rate 1 mL/min; elution profile A/B: t0 min 70/30–t10.0 min 70/30–t11.0 min 5/95–t16.0 min 5/95–t17.0 min 70/30–t22.0 min 70/30.
# Testosterone (40 µM final) was used as a positive control for the activity of the HLM and was separately incubated under the conditions described above (0% EtOH final).
# [3] = Liver cytosol assay (HLC); format: in vitro ADME, human; details: for stability toward HLC: 2 mg/mL HLC, up to 60 min, 37 °C
# Experimental: (§1) Liver cytosol experiments with [^18F]12 were performed according to reported procedures.
# (§2) Vanilin (40 µM final) was used as positive control for the activity of the liver cytosols and was separately incubated under the conditions described above (1% EtOH final). […] More than 80% of the vanilin had been degraded after 60 min in the presence of HLC, while around 60% of the vanilin had been degraded with RLC. There was no change in the degradation rate with and without 1% EtOH in the incubation mixture.
# [4] = Small-animal PET distribution in healthy mice; format: in vivo, BALB/cJRj mice
# Experimental: All animal experiments were carried out according to the guidelines of the German Regulation for Animal Welfare. The protocol was approved by the local Ethical Committee for Animal Experiments. Small-animal PET was performed using the nanoScan® PET/CT (Mediso Medical Imaging Systems, Budapest, Hungary). Each animal (BALB/cJRj mice, n = 2) received an intravenous injection of 10 MBq [^18F]12 delivered in 0.15 mL of 0.154 mol/L NaClaq through a tail vein catheter. Emission of annihilation photons was recorded continuously for 2 h. A corresponding X-ray CT image was recorded and used for anatomical referencing and attenuation correction. List-mode data were sorted into sinograms with 36 frames (15 × 10 s, 5 × 30 s, 5 × 60 s, 4 × 300 s, 3 × 600 s, 4 × 900 s) and reconstructed using the Tera-Tomo™ 3D algorithm, applying corrections for decay, scatter and attenuation. […] Three-dimensional regions of interest (ROI) were created, applying fixed contrast thresholds for delineation of blood (heart content, 80%), liver (80%), kidneys (50%), bone (knee and shoulder joints, 50%), gall bladder and intestine (5%) and urinary bladder (10%). Organ-specific activity concentrations were determined as ROI-averaged standardized uptake values at mid-frame time (SUVmean). Time–activity curves were drawn using Prism 9.0 (GraphPad Software, La Jolla, CA, USA) and the activity retention within each organ was reported as the area under the curve (AUC). Excreted activity fractions were determined as the percent of the initially administered activity dose (%ID).
# [5] = Serum stability assay at 37 °C (radio-UHPLC); format: in vitro ADME, human; details: for stability in human serum: after only 15 min
# Experimental: Either [^18F]12 or [^18F]13 (20–40 MBq) in 40 µL EtOH aliquots was incubated with 360 µL human serum (Sigma Aldrich, Darmstadt, Germany) at 37 °C. After specific time intervals (5–120 min), 40 µL samples were taken from the serum incubation mixture, added to 80 µL “Supersol” solubilizing agent (see Supplementary Materials Table S6) and cooled over ice for 2 min. Thereafter, the cooled mixture was centrifuged at 4 °C (15,000 rpm) for 3 min and 80 µL of the supernatant solution was monitored with radio-UHPLC. A gradient of 5% to 45% acetonitrile in 7.5 min was used for enhanced separation.
# (§3) The radiochemical purity and identity of [^18F]12 and [^18F]13 was analyzed with radio-HPLC. […] Prior to a biological evaluation, preliminary stability studies of [^18F]12 and [^18F]13 were performed in human serum at 37 °C (Figure 3A,B). The stability studies were performed by taking an aliquot of the radiolabeled product solution and incubating the product mixture in the desired solvent or human serum at 37 °C for the given time points. In both cases, decomposition of [^18F]12 and [^18F]13 was evident from the first peak in the radioactive channel (tR: 0.6–1.0), most likely due to the release of [^18F]fluoride, which could be detected using UHPLC analysis from the first time point of 15 min and continued until 120 min. After 60 min, approximately 20% of [^18F]12 and 19% of [^18F]13 had been degraded; following a 120 min incubation, approximately 38% of both [^18F]12 and [^18F]13 had been degraded.
# [6] = Stability in EtOH; format: physicochemical; details: 120 min
# Experimental: In addition, we performed a series of stability studies of compounds [^18F]12 and [^18F]13 in EtOH, phosphate-buffered saline (PBS, pH 7.4) and human serum (37 °C) to provide an indication of the rates of in vivo defluorination. […] These findings correlate with the unwanted accumulation of activity in the bones and joints obtained during PET imaging experiments in a healthy mice (Figure 5A,B).
# [7] = Stability in PBS (pH 7.4); format: physicochemical; details: PBS pH 7.4, 120 min
# Experimental: as §3
# [8] = Liver cytosol assay (RLC); format: in vitro ADME, rat; details: for stability toward RLC: 2 mg/mL RLC, up to 60 min, 37 °C
# Experimental: as §1, §2
# [9] = LogD7.4 determination by n-octanol/PBS partitioning; format: physicochemical; details: n-octanol/phosphate-buffered saline; partitioning between PBS pH 7.4 and octanol
# Experimental: The LogD7.4 determination of [^18F]12 was determined in a similar manner as previously described and proceeded as follows. [^18F]12 (1 μL, ca. 0.5 MBq) was pipetted into an Eppendorf tube containing 600 μL of n-octanol (presaturated with phosphate-buffered saline) and 600 μL of phosphate-buffered saline buffer (0.02 M, pH = 7.4). The tube was vortexed for 15 min at room temperature, and the two phases were separated by centrifugation at 5000 rpm for 3 min. An aliquot (400 µL) from the n-octanol layer was pipetted in a vial containing phosphate-buffered saline (400 µL), the sample mixture was vortexed for 15 min at room temperature and the two phases were separated by centrifugation at 5000 rpm for 3 min. Aliquots (250 µL) from each phase were taken and measured with an automatic γ-counter after subtracting the background activity. The transfer of the aqueous phase requires particular care, as described by Linclau et al.. The partition coefficient was calculated for the acquired samples using Equation (1). (1) logD7.4=log counts per minute (octanol)/counts per minute (phosphate buffer)
# [10] = positive control, 40 µM, after 60 min
smiles,measurement,setting,value
"N#C[C@@H]1CC(F)(F)CN1C(=O)CNC(=O)c1ccnc2ccc(OCCCN3CCN(C(=O)CN4CCN(CC(=O)O)CCN(CC(=O)O)CCN(CC(=O)O)CC4)CC3)cc12 [FAPI-04, reference compound]",Hill Coefficient,[1],−1.51 (−2.51 to −0.95)
"C[C@]12CC[C@H]3[C@@H](CCC4=CC(=O)CC[C@@]43C)[C@@H]1CC[C@@H]2O [Testosterone, reference compound]",time after which metabolization was completed,[2]; human,> 30 min
N#C[C@@H]1CC(F)(F)CN1C(=O)CNC(=O)c1ccnc2ccc(OCCCN3CCN(C(=O)c4ccc(OS(=O)(=O)[18F])cc4)CC3)cc12 [[^18F]12],half-time toward HLM,"[2]; 1 mg/mL HLM, 2 mM NADPH, 1.6 µM tracer, 37 °C, one-phase decay",4.4 min
same,stability in presence of HLM without NADPH (control),"[2]; NADPH omitted, 60 min",apparently stable
same,stability toward HLC,[3],largely stable; also recorded: mostly stable
same,stability toward HLC,[3]; listed as [18F]12,No degradation
same,substrate of aldehyde oxidase (AO),[3]; liver cytosols as source of AO,not to be a substrate of AO
same,time of maximum activity concentration in kidney,"[4]; i.v., after injection",2 min
same,time of maximum activity concentration in liver,"[4]; i.v., after injection",2 min
same,activity concentration in bones,"[4]; i.v., within 2 h",continuously increasing
same,fraction of initially delivered activity dose excreted via hepatobiliary pathway,"[4]; retention in gall bladder and intestine, 2 h",45%
same,fraction of initially delivered activity dose excreted via renal pathway,"[4]; retention in urinary bladder, 2 h",10%
same,fraction degraded in human serum,[5]; 120 min incubation,approximately 38%
same,fraction degraded in human serum,[5]; after 60 min,approximately 20%
same,stability in human serum,[5],clear signs of instability
same,stability in EtOH,[6],stable
same,stability in PBS,[7],stable
same,stability toward RLC,[8],largely stable; also recorded: mostly stable
same,stability toward RLC,[8]; listed as [18F]12,No degradation
same,logD,[9],1.81
N#C[C@@H]1CC(F)(F)CN1C(=O)CNC(=O)c1ccnc2ccc(OCCCN3CCN(C(=O)c4cccc(OS(=O)(=O)[18F])c4)CC3)cc12 [[^18F]13],fraction degraded in human serum,[5]; 120 min incubation,approximately 38%
same,fraction degraded in human serum,[5]; after 60 min,~19%
same,stability in human serum,[5],clear signs of instability
same,stability in EtOH,[6],stable
same,stability in PBS,[7],stable
N#C[C@@H]1CC(F)(F)CN1C(=O)CNC(=O)c1ccnc2ccc(OCCCN3CCN(C(=O)c4ccc(OS(=O)(=O)F)cc4)CC3)cc12 [compound 12],IC50,[1],9.63 nM
same,Hill Coefficient,[1],−1.56 (−2.43 to −1.059)
N#C[C@@H]1CC(F)(F)CN1C(=O)CNC(=O)c1ccnc2ccc(OCCCN3CCN(C(=O)c4cccc(OS(=O)(=O)F)c4)CC3)cc12 [compound 13],IC50,[1],4.17 nM
same,Hill Coefficient,[1],−1.27 (−1.98 to −0.91)
"COc1cc(C=O)ccc1O [vanilin, Vanilin, reference compound]",fraction degraded in presence of HLC,[3]; [10],More than 80%
same,fraction degraded with RLC,[8]; [10],around 60%
